This is an account of results in patent publication US20100004159A1, “SUBSTITUTED IMIDAZOLONE DERIVATIVES, PREPARATIONS AND USES” (GENFIT, priority 2006, published 2010).

SMILES strings stand for the structures.

Turning to `CCCCC1=NC2(CCCC2)C(=O)N1CCc1ccc(OC(C)(C)C(=O)O)cc1` [Compound 3, 2-butyl-1-[2-(4-((1-carboxy-1,1-dimethylmethyl)oxy)phenyl)ethyl]-4-spirocyclopentyl-1H-imidazol-5(4H)-one], the melting point – broadly, the temperature, or range, at which the solid turns liquid – fell in the range of 50 to 53 °C.
`CCCCC1=NC2(CCCC2)C(=O)N1Cc1ccc(-c2ccccc2OC(C)(C)C(=O)O)cc1` [Compound 6, 2-butyl-1-[(2′-((1-carboxy-1,1-dimethylmethyl)oxy)biphenyl-4-yl)methyl]-4-spirocyclopentyl-1H-imidazol-5(4H)-one] returned a melting point of 74 to 80 °C.
Compound `CCCCC1=NC2(CCCC2)C(=O)N1Cc1ccc(C(=O)c2ccccc2OC(C)(C)C(=O)O)cc1` [Compound 7, 2-butyl-1-[[4-[(2-((1-carboxyl-1,1-dimethylmethyl)oxy)phenyl)carbonyl]phenyl]methyl]-4-spirocyclopentyl-1H-imidazol-5(4H)-one] registered a melting point of 85 to 90 °C.
For the compound `CCCCC1=NC2(CCCC2)C(=O)N1Cc1ccc(C(=O)c2ccc(OC(C)(C)C(=O)O)cc2)cc1` [Compound 9, 2-butyl-1-[[4-[(4-((1-carboxyl-1,1-dimethylmethyl)oxy)phenyl)carbonyl]phenyl]methyl]-4-spirocyclopentyl-1H-imidazol-5(4H)-one], the melting point lay in the range of 90 to 99 °C.
As to `CCCCC1=NC2(CCCCC2)C(=O)N1Cc1ccc(C(=O)c2cccc(OC(C)(C)C(=O)O)c2)cc1` [Compound 11, 2-butyl-1-[[4-[(3-((1-carboxyl-1,1-dimethylmethyl)oxy)phenyl)carbonyl]phenyl]methyl]-4-spirocyclohexyl-1H-imidazol-5(4H)-one], the melting point lay within 68 to 75 °C.
`CCCCC1=NC2(CCCC2)C(=O)N1Cc1ccc(-c2cc(OC(C)(C)C(=O)O)ccc2Br)cc1` [Compound 12, 1-[(6′-bromo-3′-((1-carboxy-1,1-dimethylmethyl)oxy)biphenyl-4-yl)methyl]-2-butyl-4-spirocyclopentyl-1H-imidazol-5(4H)-one] returned a melting point of 174 to 176 °C.
`CCCCC1=NC(C)(C)C(=O)N1Cc1ccc(C(=O)c2cccc(OC(C)(C)C(=O)O)c2)cc1` [Compound 14, 2-butyl-1-[[4-[(3-((1-carboxyl-1,1-dimethylmethyl)oxy)phenyl)carbonyl]phenyl]methyl]-4,4-dimethyl-1H-imidazol-5(4H)-one] returned a melting point of 167 to 169 °C.
In the case of `CCCCC1=NC(c2ccccc2)C(=O)N1Cc1ccc(C(=O)c2cccc(OC(C)(C)C(=O)O)c2)cc1` (stereo not shown) [Compound 15, 2-butyl-1-[[4-[(3-((1-carboxy-1,1-dimethylmethyl)oxy)phenyl)carbonyl]phenyl]methyl]-4-phenyl-1H-imidazol-5(4H)-one], the melting point lay within 115 to 120 °C.
For `CCCC1=NC2(CCCC2)C(=O)N1Cc1ccc(-c2cccc(OC(C)(C)C(=O)O)c2)cc1` [Compound 16, 1-[(3′-((1-carboxy-1,1-dimethylmethyl)oxy)biphenyl-4-yl)methyl]-2-propyl-4-spirocyclopentyl-1H-imidazol-5(4H)-one], the melting point fell in the range of 134 to 190 °C.
`CC1=NC2(CCCC2)C(=O)N1Cc1ccc(-c2cccc(OC(C)(C)C(=O)O)c2)cc1` [Compound 18, 1-[(3′-((1-carboxy-1,1-dimethylmethyl)oxy)biphenyl-4-yl)methyl]-2-methyl-4-spirocyclopentyl-1H-imidazol-5(4H)-one] showed a melting point of 81 to 88 °C.
With `CCCCC1=NC(c2ccccc2)C(=O)N1Cc1ccc(C(=O)c2ccc(OC(C)(C)C(=O)O)cc2)cc1` (stereo not shown) [Compound 20, 2-butyl-1-[[4-[(4-((1-carboxy-1,1-dimethylmethyl)oxy)phenyl)carbonyl]phenyl]methyl]-4-phenyl-1H-imidazol-5(4H)-one] the figure was 215 to 217 °C; with `CCCCC1=NC2(CCCCC2)C(=O)N1Cc1ccc(-c2cc(OC(C)(C)C(=O)O)ccc2Br)cc1` [Compound 22, 1-[(6′-bromo-3′-((1-carboxy-1,1-dimethylmethyl)oxy)biphenyl-4-yl)methyl]-2-butyl-4-spirocyclohexyl-1H-imidazol-5(4H)-one], 170 to 172 °C; with `CCCCC1=NC2(CCCC2)C(=O)N1Cc1ccc(-c2cccc(OCC#N)c2)cc1` [Compound 23, 2-butyl-1-[(3′-(cyanomethoxy)biphenyl-4-yl)methyl]-4-spirocyclopentyl-1H-imidazol-5(4H)-one], 128 to 130 °C.
`CCCCC1=NC(c2ccccc2)C(=O)N1Cc1ccc(-c2cc(Br)ccc2OC(C)(C)C(=O)O)cc1` (stereo not shown) [Compound 26, 1-[(5′-bromo-2′-((1-carboxy-1,1-dimethylmethyl)oxy)biphenyl-4-yl)methyl]-2-butyl-4-phenyl-1H-imidazol-5(4H)-one] gave a melting point of 199 to 201 °C.
As to `CC(C)CC1=NC2(CCCC2)C(=O)N1Cc1ccc(-c2cccc(OC(C)(C)C(=O)O)c2)cc1` [Compound 27, 1-[(3′-((1-carboxy-1,1-dimethylmethyl)oxy)biphenyl-4-yl)methyl]-2-(2-methyl)propyl-4-spirocyclopentyl-1H-imidazol-5(4H)-one], the melting point lay within 213 to 216 °C.
Compound `CC(C)(Oc1cccc(-c2ccc(CN3C(=O)C4(CCCC4)N=C3Cc3ccccc3)cc2)c1)C(=O)O` [Compound 28, 2-benzyl-1-[(3′-((1-carboxy-1,1-dimethylmethyl)oxy)biphenyl-4-yl)methyl]-4-spirocyclopentyl-1H-imidazol-5(4H)-one] registered a melting point of 149 to 153 °C.
Compound `CC(C)(Oc1cccc(-c2ccc(CN3C(=O)C4(CCCC4)N=C3C3CC3)cc2)c1)C(=O)O` [Compound 29, 1-[(3′-((1-carboxy-1,1-dimethylmethyl)oxy)biphenyl-4-yl)methyl]-2-cyclopropyl-4-spirocyclopentyl-1H-imidazol-5(4H)-one] registered a melting point of 175 to 177 °C.
Consider `CCCCC1=NC2(CCCC2)C(=O)N1Cc1ccc(Cc2ccc(OC(C)(C)C(=O)O)cc2)cc1` [Compound 31], for which the melting point was 147 to 149 °C.
With `CCCCC1=NC2(CCCCC2)C(=O)N1Cc1ccc(-c2cccc(OCC(=O)O)c2)cc1` [Compound 52, 2-butyl-1-[(3′-((1-carboxymethyl)oxy)biphenyl-4-yl)methyl]-4-spirocyclohexyl-1H-imidazol-5(4H)-one] the figure was 82 to 85 °C; with `CCCCC1=NC2(CCCCC2)C(=O)N1Cc1ccc(-c2cccc(OC(CC)C(=O)O)c2)cc1` (stereo not shown) [Compound 54, 2-butyl-1-[(3′-((1-carboxy-1-ethylmethyl)oxy)biphenyl-4-yl)methyl]-4-spirocyclohexyl-1H-imidazol-5(4H)-one], 170 °C; with `CCCCC1=NC2(CCCCC2)C(=O)N1Cc1ccc(-c2cccc(OC(C(=O)O)C(C)C)c2)cc1` (stereo not shown) [Compound 55, 2-butyl-1-[(3′-((1-carboxy-1-(1,1-dimethylmethyl)methyl)oxy)-biphenyl-4-yl)methyl]-4-spirocyclohexyl-1H-imidazol-5(4H)-one], 105 °C.
Compound `CCCCC1=NC2(CCCCC2)C(=O)N1Cc1ccc(-c2cc(OCC(=O)O)ccc2F)cc1` [Compound 56, 2-butyl-1-[(3′-((1-carbonylmethyl)oxy)-6′-fluoro-biphenyl-4-yl)methyl]-4-spirocyclohexyl-1H-imidazol-5(4H)-one] showed a melting point of 102 to 105 °C.
Turning to `CCCCC1=NC2(CCCCC2)C(=O)N1Cc1ccc(-c2cc(OC(C)C(=O)O)ccc2F)cc1` (stereo not shown) [Compound 57, 2-butyl-1-[(3′-((1-carboxy-1-methylmethyl)oxy)-6′-fluoro-biphenyl-4-yl)methyl]-4-spirocyclohexyl-1H-imidazol-5(4H)-one], the melting point was determined as 96 °C.
`CCCCC1=NC2(CCCCC2)C(=O)N1Cc1ccc(-c2cc(OC(C(=O)O)C(C)C)ccc2F)cc1` (stereo not shown) [Compound 59, 2-butyl-1-[(3′-((1-carboxy-1-(1,1-dimethylmethyl)-methyl)oxy)-6′-fluoro-biphenyl-4-yl)methyl]-4-spirocyclohexyl-1H-imidazol-5(4H)-one] returned a melting point of 95 °C.
`CCCCC1=NC2(CCCCC2)C(=O)N1Cc1ccc(-c2cc(OC(C)(C)C(=O)O)ccc2F)cc1` [Compound 60, 2-butyl-1-[(3′-((1-carboxy-1,1-dimethylmethyl)oxy)-6′-fluoro-biphenyl-4-yl)methyl]-4-spirocyclohexyl-1H-imidazol-5(4H)-one] registered a melting point of 72 °C.
Compound `CCCCC1=NC(CC)(CC)C(=O)N1Cc1ccc(-c2cccc(OC(C(=O)O)C(C)C)c2)cc1` (stereo not shown) [Compound 63, 2-butyl-1-[(3′-((1-carboxy-1-(1,1-dimethylmethyl)methyl)oxy)-biphenyl-4-yl)methyl]-4,4-diethyl-1H-imidazol-5(4H)-one] had a melting point of 65 °C.
Turning to `CCCCC1=NC(CC)(CC)C(=O)N1Cc1ccc(-c2cccc(OC(CC)C(=O)O)c2)cc1` (stereo not shown) [Compound 64, 2-butyl-1-[(3′-((1-carboxy-1-ethylmethyl)oxy)biphenyl-4-yl)methyl]-4,4-diethyl-1H-imidazol-5(4H)one], the melting point stood at 184 °C.
In turn, `CCCCC1=NC(CC)(CC)C(=O)N1Cc1ccc(-c2cccc(OC(C)(C)C(=O)O)c2)cc1` [Compound 65, 2-butyl-1-[(3′-((1-carboxy-1,1-dimethylmethyl)oxy)biphenyl-4-yl)methyl]-4,4-diethyl-1H-imidazol-5(4H)one] yielded a melting point of 144 °C.
`CCCCC1=NC(CC)(CC)C(=O)N1Cc1ccc(-c2cccc(OC(C)C(=O)O)c2)cc1` (stereo not shown) [Compound 66, 2-butyl-1-[(3′-((1-carboxy-1-methylmethyl)oxy)biphenyl-4-yl)methyl]-4,4-diethyl-1H-imidazol-5(4H)one]: the melting point came to 186 °C.
With `CCCCC1=NC2(CCCCC2)C(=O)N1Cc1ccc(-c2cccc(OC3(C(=O)O)CCC3)c2)cc1` [Compound 67, 2-butyl-1-[(3′-((1-carboxy-1-spirocyclobutylmethyl)oxy)biphenyl-4-yl)methyl]-4-spirocyclohexyl-1H-imidazol-5(4H)-one] the figure was 184 °C; with `CCCCC1=NC(CC)(CC)C(=O)N1Cc1ccc(-c2cc(OC(C(=O)O)C(C)C)ccc2F)cc1` (stereo not shown) [Compound 68, 2-butyl-1-[(3′-((1-carboxy-1-(1,1-dimethylmethyl)methyl)oxy)-6′-fluoro-biphenyl-4-yl)methyl]-4,4-diethyl-1H-imidazol-5(4H)one], 65 °C.
